1 molecule from article PMC6557200, “Correction: First-in-human phase 1 study of the BTK inhibitor GDC-0853 in relapsed or refractory B-cell NHL and CLL” (Oncotarget, 2019) can be followed below.

This data set in a line: First-in-human phase 1 study: pharmacokinetics parameters of GDC-0853 (plasma) on day 1 and day 15. It is filed as in vivo. The settings on record: for AUC(0-inf): read-out: Day 1 AUC0-inf Mean (%CV). An excerpt: Table 3 Summary of pharmacokinetics parameters for GDC-0853 on day 1 and day 15 (cohorts 1, 2, and 3, with 100, 200, and 400-mg GDC-0853, respectively) | column: Day 1 T1/2 (hr) Mean (%CV); Day 1 Tmax^a (hr) Median (range); Day 1 Cmax (μM) Mean (%CV); Day 1 AUC0-inf (hr•μM) Mean (%CV); Day 1 AUC0-24 (hr*μM) Mean (%CV); Day 15 Tmax^a(hr) Median (range); Day 15 Cmax (μM) Mean (%CV); Day 15 AUC0- 24 (hr•μM) Mean (%CV); Day 15 Accumulation Ratio Mean (%CV)

Structures are written as SMILES. Like-named read-outs stand apart in the source and are kept apart here.

With `C[C@H]1CN(C2COC2)CCN1c1ccc(Nc2cc(-c3ccnc(N4CCn5c(cc6c5CC(C)(C)C6)C4=O)c3CO)cn(C)c2=O)nc1` [GDC-0853], the “Day 15 Accumulation Ratio Mean (%CV)” value is, setting by setting: (100 mg (n = 6), cohort 1, day 15) 1.78 (58.4); (200 mg (n = 9), cohort 2, day 15) 1.44 (77.9); (400 mg (n = 9), cohort 3, day 15) 1.91 (102). Also, the Cmax – broadly, the highest concentration seen after dosing – (human, plasma, 100 mg, 100 mg (n = 6), cohort 1, day 1, plasma, read-out: Day 1 Cmax Mean (%CV)) is 119 nM; the Cmax (human, plasma, 200 mg, 200 mg (n = 9), cohort 2, day 1, plasma, read-out: Day 1 Cmax Mean (%CV)) is 571 nM; the Cmax (human, plasma, 200 mg, 200 mg (n = 9), cohort 2, day 15, plasma, read-out: Day 15 Cmax Mean (%CV)) is 614 nM; the Cmax (human, plasma, 400 mg, 400 mg (n = 9), cohort 3, day 1, plasma, read-out: Day 1 Cmax Mean (%CV)) was 1440 nM; the highest concentration (Cmax) (human, plasma, 400 mg, 400 mg (n = 9), cohort 3, day 15, plasma, read-out: Day 15 Cmax Mean (%CV)) turned out to be 1390 nM. Besides, the AUC(0-t) runs as follows: (human, plasma, 100 mg, 100 mg (n = 6), cohort 1, day 1, read-out: Day 1 AUC0-24 Mean (%CV)) 0.67 µM·h; (human, plasma, 100 mg, 100 mg (n = 6), cohort 1, day 15, read-out: Day 15 AUC0-24 Mean (%CV)) 1.2 µM·h; (human, plasma, 200 mg, 200 mg (n = 9), cohort 2, day 1, read-out: Day 1 AUC0-24 Mean (%CV)) 2.54 µM·h; (human, plasma, 200 mg, 200 mg (n = 9), cohort 2, day 15, read-out: Day 15 AUC0-24 Mean (%CV)) 2.83 µM·h; (human, plasma, 400 mg, 400 mg (n = 9), cohort 3, day 1, read-out: Day 1 AUC0-24 Mean (%CV)) 6.95 µM·h; (human, plasma, 400 mg, 400 mg (n = 9), cohort 3, day 15, read-out: Day 15 AUC0-24 Mean (%CV)) 7.74 µM·h. For the same molecule, the AUC(0-inf) came out at 0.861 µM·h (human, plasma, 100 mg (n = 6), cohort 1, day 1); 3.42 µM·h (human, plasma, 200 mg (n = 9), cohort 2, day 1); 7.57 µM·h (human, plasma, 400 mg (n = 9), cohort 3, day 1). Besides, for the setting “human, plasma, 200 mg (n = 9), cohort 2, day 15, read-out: Day 15 Tmax Median (range)”, the Tmax (as a rule, the time at which the peak concentration occurs) worked out at 2.1 h.
